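Growth conditions: 96-well plates. Treatment: test compound, 48 hours, 5 concentrations. Analysis: linear interpolation between bracketing concentrations; unreached endpoints set to highest concentration. TGI: total growth inhibition.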
Tests used:
Test in all cases: growth of human tumour cells (NCI), 48 h
MDA-MB-435 = tested on: MDA-MB-435
NCI-H460 lung = tested on: NCI-H460 lung
PC-3 prostate = tested on: PC-3 prostate
RXF 393 renal = tested on: RXF 393 renal
BT-549 breast = tested on: BT-549 breast
SW-620 colon = tested on: SW-620 colon
SK-OV-3 ovarian = tested on: SK-OV-3 ovarian
CAKI-1 renal = tested on: CAKI-1 renal
HT29 colon = tested on: HT29 colon
SNB-75 CNS = tested on: SNB-75 CNS
NCI-H522 lung = tested on: NCI-H522 lung
IGROV1 ovarian = tested on: IGROV1 ovarian
SK-MEL-5 melanoma = tested on: SK-MEL-5 melanoma
OVCAR-4 ovarian = tested on: OVCAR-4 ovarian
A549 NSCLC = tested on: A549 NSCLC
HS 578T breast = tested on: HS 578T breast
MALME-3M melanoma = tested on: MALME-3M melanoma
HL-60(TB) leukemia = tested on: HL-60(TB) leukemia
SN12C renal = tested on: SN12C renal
LOX IMVI melanoma = tested on: LOX IMVI melanoma
U251 CNS = tested on: U251 CNS
HCT-116 colon = tested on: HCT-116 colon
SF-268 CNS = tested on: SF-268 CNS
MOLT-4 leukemia = tested on: MOLT-4 leukemia
NCI/ADR-RES ovarian = tested on: NCI/ADR-RES ovarian
CCRF-CEM leukemia = tested on: CCRF-CEM leukemia
SF-295 CNS = tested on: SF-295 CNS
SR leukemia = tested on: SR leukemia
786-0 renal = tested on: 786-0 renal
RPMI-8226 leukemia = tested on: RPMI-8226 leukemia
M14 melanoma = tested on: M14 melanoma
HOP-62 NSCLC = tested on: HOP-62 NSCLC
EKVX NSCLC = tested on: EKVX NSCLC
HOP-92 NSCLC = tested on: HOP-92 NSCLC
SF-539 CNS = tested on: SF-539 CNS
K-562 leukemia = tested on: K-562 leukemia
MCF7 breast = tested on: MCF7 breast
OVCAR-8 ovarian = tested on: OVCAR-8 ovarian
SK-MEL-28 melanoma = tested on: SK-MEL-28 melanoma
KM12 colon = tested on: KM12 colon
MDA-N = tested on: MDA-N
ACHN renal = tested on: ACHN renal
UACC-62 melanoma = tested on: UACC-62 melanoma
MDA-MB-231 breast = tested on: MDA-MB-231 breast
HCT-15 colon = tested on: HCT-15 colon
SNB-19 CNS = tested on: SNB-19 CNS
COLO 205 colon = tested on: COLO 205 colon
T-47D breast = tested on: T-47D breast
OVCAR-3 ovarian = tested on: OVCAR-3 ovarian
TK-10 renal = tested on: TK-10 renal
OVCAR-5 ovarian = tested on: OVCAR-5 ovarian
A498 renal = tested on: A498 renal
UACC-257 melanoma = tested on: UACC-257 melanoma
SK-MEL-2 melanoma = tested on: SK-MEL-2 melanoma
NCI-H226 lung = tested on: NCI-H226 lung
DU-145 prostate = tested on: DU-145 prostate
NCI-H23 lung = tested on: NCI-H23 lung
HCC-2998 colon = tested on: HCC-2998 colon
UO-31 renal = tested on: UO-31 renal

Measured: TGI

O=C(O)CNCP(=O)(O)O
not listed: HCC-2998 colon | UO-31 renal
> 100 µM: all other assays above

Nc1nc2c(c(=O)[nH]1)CN(CCCN1CCOCC1)CN2
not listed: RXF 393 renal | SK-OV-3 ovarian | SNB-75 CNS | HL-60(TB) leukemia | CCRF-CEM leukemia
> 100 µM: all other assays above

Reference: PubChem BioAssay (NCI)
